What all share (assay type): in vivo
The subject of one series is Empoasca vitis adults. Briefly: Lab trial in Petri dishes, leaf dipped in suspension. To be noted: 75 ml/L. The method, then:
Composition used for insect control: Suspension of Beauveria bassiana CNCM I-2960 spores prepared in Tween 80. Total CFU count = 8.2 x 10^7 CFU/ml Suspension of Beauveria bassiana CNCM I-2961 spores prepared in Tween 80. Total CFU count = 1.1 x 10^8 CFU/ml Trial method: Lab trial in Petri dishes, 5 replicates, 10 nymphs/replicate Leaf dipped in prepared suspension of treatment, let dried and set up on agar agar Incubation in climatic room at +20 C, dead adults removed and incubated for sporulation on cadaver: assessment at 15 DAA Assessment of mortality percentage of Empoasca vitis adults at 7 DAA, 11DAA. Comparative control: Lambda cyhalothrin Table 4: Efficacy of Beauveria bassiana CNCM I-2961 and Beauveria bassiana CNCM I-2960 on Empoasca vitis adults

Series [1] has as its system Empoasca vitis L2/L3 larvae. Described as above. To be noted: 75 ml/L. The method, then: Composition used for insect control: Suspension of Beauveria bassiana CNCM I-2961 spores prepared in Tween 80. Total CFU count = 1.0 x 10^8 CFU/ml Trial method: Lab trial in Petri dishes, 10 replicates, 5 L2&L3 larvae /replicate Leaf dipped in prepared suspension of treatment, let dried and set up on agar agar Incubation in climatic room at +20°C, dead adults removed and incubated for sporulation on cadaver: assessment at 18 DAA Assessment of mortality percentage of Empoasca vitis L2/L3 larvae at 7 DAA, 10DAA. Comparative control: Lambda cyhalothrin Table 5: Efficacy of Beauveria bassiana CNCM I-2961 on Empoasca vitis L2/L3 larvae

A further series has as its system Bactrocera oleae adults. Briefly: Lab trial in plastic containers, flies dipped in test solution. The settings on record: 75 ml/L. The method, then:
Composition used for insect control: Suspension of Beauveria bassiana CNCM I-2960 spores prepared in Tween 80. Total CFU count = 9.5 x 10^7 CFU/ml Trial method: Lab trial in plastic containers, 5 replicates, 10 adults /replicate Flies dipped in test solution Incubation in climatic room at +25°C Assessment of mortality percentage of Bactrocera oleae adults at 10DAT. DAT = Days after Treatment Comparative control: Lambda-cyhalothrin Table 7: Efficacy of Beauveria bassiana CNCM I-2960 on Bactrocera oleae adults

The test system of another series is Halyomorpha halys Nymphs. Briefly: Lab trial in Petri dishes, suspension applied on nymphs + spray on beans. The settings on record: 0.5 ml/L. The method, then:
Composition used for insect control: Suspension of Beauveria bassiana CNCM I-2960 spores prepared in Tween 80. Total CFU count = 1 x 10^8 CFU/ml Trial method: Lab trial in Petri dishes, 10 replicates, 5 nymphs/replicate Suspension applied on nymphs + spray on beans Incubation in climatic room at +25°C Assessment of mortality percentage of Halyomorpha halys Nymphs at 10 DAA Comparative control: Acetamiprid Table 2: Efficacy of Beauveria bassiana CNCM I-2960 on Halyomorpha halys Nymphs

For the next series, the system named is Halyomorpha halys eggs. As to the kind of experiment: Lab trial in Petri dishes, suspension sprayed on eggs. To be noted: 0.5 ml/L. The method, then: Composition used for insect control: Suspension of Beauveria bassiana CNCM I-2960 spores prepared in Tween 80. Total CFU count = 1 x 10^6 CFU/ml, 1 x 10^7 CFU/ml and 1 x 10^8 CFU/ml Suspension of Beauveria bassiana CNCM I-2961 spores prepared in Tween 80. Total CFU count = 1 x 10^6 CFU/ml, 1 x 10^7 CFU/ml and 1 x 10^8 CFU/ml Trial method: Lab trial in Petri dishes, 5 replicates, 10 nymphs/replicate Suspension sprayed on eggs with equivalent volume of 1000 L/ha Incubation in climatic room at +25°C Assessment of mortality percentage of Halyomorpha halys Nymphs from treated eggs at 6 DAH, 9DAH, 13 DAH and 17 DAH. DAH = Days after hatching Comparative control: Acetamiprid Table 3: Efficacy of Beauveria bassiana CNCM-2961 and Beauveria bassiana CNCM I-2960 on Halyomorpha halys nymphs from treated eggs

The test system of series [2] is Dysaphis plantaginea adults. As to the kind of experiment: Lab trial in Petri dishes, leaf disc dipped in suspension. To be noted: 0.14 kg/ha. The method, then: Composition used for insect control: Suspension of Beauveria bassiana CNCM I-2961 spores prepared in Tween 80. Total CFU count = 1.2 x 10^8 CFU/ml Trial method: Lab trial in Petri dishes, 10 replicates, 5 adults/replicate Leaf disc dipped in prepared suspension of treatment, let dried and set up on agar agar Incubation in climatic room at +21°C, dead adults removed and incubated for sporulation on cadaver: assessment at 17 DAA Assessment of mortality percentage of Dysaphis plantaginea adults at 8 DAA, 10 DAA DAA = Days after application Comparative control: Flonicamid Table 1: Efficacy of Beauveria bassiana CNCM I-2961 on Dysaphis plantaginea adults

In the case of `CC1(C)[C@H](C(=O)O[C@H](C#N)c2cccc(Oc3ccccc3)c2)[C@@H]1/C=C(\Cl)C(F)(F)F` (racemic) [Lambda cyhalothrin], the “Mortality percentage of Empoasca vitis adults at 7 DAA” value in the series on Empoasca vitis adults (7 DAA) is recorded as 83%. Moreover, the “Mortality percentage of Empoasca vitis adults at 11 DAA” value with Empoasca vitis adults (11 DAA) was determined as 100%. Also, the “Mortality percentage of Empoasca vitis larvae at 7 DAA” value in series [1] (7 DAA) came out at 65%. Further, the “Mortality percentage of Empoasca vitis larvae at 10 DAA” value in series [1] (10 DAA) is given as 91%. The “Mortality percentage of Bactrocera oleae adults at 10 DAA” value with Bactrocera oleae adults was found to be 100%.
For `C/C(=N\C#N)N(C)Cc1ccc(Cl)nc1` [Acetamiprid], in the series with Halyomorpha halys Nymphs, the “Mortality percentage of Halyomorpha halys Nymphs at 10 DAA” value came to 100%. Further, the “Mortality percentage of Halyomorpha halys nymphs from treated eggs at 6 DAH” value in the series on Halyomorpha halys eggs (6 DAH) is given as 0%. The “Mortality percentage of Halyomorpha halys nymphs from treated eggs at 9 DAH” value in the series on Halyomorpha halys eggs (9 DAH) was found to be 7%. In the series on Halyomorpha halys eggs (13 DAH), the “Mortality percentage of Halyomorpha halys nymphs from treated eggs at 13 DAH” value is listed as 12%. Besides, the “Mortality percentage of Halyomorpha halys nymphs from treated eggs at 17 DAH” value in the series on Halyomorpha halys eggs (17 DAH) was 22%.
With `N#CCNC(=O)c1cnccc1C(F)(F)F` [Flonicamid], the “Mortality percentage of Dysaphis plantaginea adults at 8 DAA” value in series [2] (8 DAA) amounted to 100%. In addition, in series [2] (10 DAA), the “Mortality percentage of Dysaphis plantaginea adults at 10 DAA” value was 100%.

The values above are taken from patent EP4656049A1, “A METHOD OF CONTROLLING INSECT PESTS” (UPL Mauritius Limited, priority 2024, dated 2025).
